The text below walks through data of patent publication US11077090B2, “Compounds and compositions and uses thereof” (Sunovion Pharmaceuticals Inc., priority 2016, dated 2021).

Like-named read-outs stand apart in the source and are kept apart here.

As a reminder, the minimal effective dose is the smallest amount tested that counted as effective.

For the assay, the system named is compound-treated mice. The assay is described as follows: Neuropharmacological assay (SmartCube): behavioral activity signature and minimal effective dose. As to conditions: for minimal effective dose: Mus musculus, ip, MED = dose having 50% or more total activity; for AD: ADHD (probability of activity signature) / AG: analgesic (probability of activity signature) / AX: anxiolytic (probability of activity signature) / CE: cognitive enhancer (probability of activity signature) / DP: anti-depressant (probability of activity signature) / MS: mood stabilizer (probability of activity signature) / PS: anti-psychotic (probability of activity signature) / SD: sedative hypnotic (probability of activity signature) / UN: uncharacterized CNS activity (probability of activity signature): i.p. 15 min before test, most efficacious dose(s). Type of assay: in vivo. The procedure, abridged: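 Video-recorded behavior is compared algorithmically against a reference-compound database, yielding class probabilities (best dose reported). Compounds given i.p. in NMP/PEG/propylene glycol 15 min pre-test at 3 doses; potency as MED, the dose (mpk, range usually 0.3–30) reaching ≥50% total activity.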

Where [1] appears, read: read-out: Potency: minimal effective dose (MED).
Setting [2] is: read-out: Potency: minimal effective dose (MED), binned.

As for `Cc1ccc2c(c1)[C@H](N)[C@@H](C)OC2` [Example 155], the “AD: ADHD (probability of activity signature)” value (shortened to “AD: ADHD”) is “+ (LOQ ≤ + <5%)”, the “AG: analgesic (probability of activity signature)” value (“AG: analgesic” below) was “++ (5% ≤ ++ <25%)”, the “AX: anxiolytic (probability of activity signature)” value (shortened to “AX: anxiolytic”) is given as “++++ (50% ≤ ++++)” and the “CE: cognitive enhancer (probability of activity signature)” value (from here on “CE: cognitive enhancer”) is “++ (5% ≤ ++ <25%)”. The “DP: anti-depressant (probability of activity signature)” value (“DP: anti-depressant” for short) is on record as “++ (5% ≤ ++ <25%)”, the “MS: mood stabilizer (probability of activity signature)” value (from here on “MS: mood stabilizer”) was “+ (LOQ ≤ + <5%)”, the “PS: anti-psychotic (probability of activity signature)” value (from here on “PS: anti-psychotic”) is listed as “++ (5% ≤ ++ <25%)” and the “SD: sedative hypnotic (probability of activity signature)” value (“SD: sedative hypnotic” for short) is recorded as “++ (5% ≤ ++ <25%)”. For the same compound, the “UN: uncharacterized CNS activity (probability of activity signature)” value (“UN: uncharacterized CNS activity” below) was “++ (5% ≤ ++ <25%)”. The minimal effective dose under setting [1] was 3 to 10 mg/kg.
Regarding `CC[C@H]1OCc2cccc(Cl)c2[C@@H]1N.Cl` (single isomer, unassigned) [Example 209], the “AD: ADHD” value is on record as “+ (LOQ ≤ + <5%)”, the “AG: analgesic” value is “+++ (25% ≤ +++ <50%)”, the “AX: anxiolytic” value was “++ (5% ≤ ++ <25%)” and the “CE: cognitive enhancer” value is on record as “++ (5% ≤ ++ <25%)”. For the same compound, the “DP: anti-depressant” value is recorded as “++ (5% ≤ ++ <25%)”, the “MS: mood stabilizer” value is reported as “+ (LOQ ≤ + <5%)”, the “PS: anti-psychotic” value is on record as “++ (5% ≤ ++ <25%)” and the “SD: sedative hypnotic” value was “++ (5% ≤ ++ <25%)”. For the same compound, the “UN: uncharacterized CNS activity” value is reported as “+++ (25% ≤ +++ <50%)”. Further, the minimal effective dose under setting [2] is 3 to 10 mg/kg.
Consider `Cc1cccc2c1CO[C@H](C)[C@H]2N.Cl` [Example 98], for which the “AD: ADHD” value is on record as “+ (LOQ ≤ + <5%)”, the “AG: analgesic” value is on record as “++ (5% ≤ ++ <25%)”, the “AX: anxiolytic” value is reported as “++ (5% ≤ ++ <25%)” and the “CE: cognitive enhancer” value was “++ (5% ≤ ++ <25%)”. The “DP: anti-depressant” value is given as “++ (5% ≤ ++ <25%)”, the “MS: mood stabilizer” value is recorded as “+ (LOQ ≤ + <5%)”, the “PS: anti-psychotic” value is given as “++ (5% ≤ ++ <25%)” and the “SD: sedative hypnotic” value is “++ (5% ≤ ++ <25%)”. The “UN: uncharacterized CNS activity” value was “++++ (50% ≤ ++++)”. In addition, the minimal effective dose under setting [1] was in the range of 3 to 10 mg/kg.
On to `COc1ccc2c(c1)CO[C@@H](C)[C@H]2N.Cl` [Example 233], for which the “AD: ADHD” value is listed as “+ (LOQ ≤ + <5%)”, the “AG: analgesic” value is listed as “++ (5% ≤ ++ <25%)”, the “AX: anxiolytic” value is “++ (5% ≤ ++ <25%)” and the “CE: cognitive enhancer” value is reported as “++ (5% ≤ ++ <25%)”. Moreover, the “DP: anti-depressant” value was “+ (LOQ ≤ + <5%)”, the “MS: mood stabilizer” value was “+ (LOQ ≤ + <5%)”, the “PS: anti-psychotic” value is listed as “+ (LOQ ≤ + <5%)” and the “SD: sedative hypnotic” value is recorded as “+ (LOQ ≤ + <5%)”. Also, the “UN: uncharacterized CNS activity” value was “+ (LOQ ≤ + <5%)”. Moreover, the minimal effective dose under setting [2] is above 30 mg/kg.
As to `COc1ccc2c(c1)[C@H](N)[C@H](C)OC2.Cl` [Example 84], the “AD: ADHD” value is “+ (LOQ ≤ + <5%)”, the “AG: analgesic” value was “++ (5% ≤ ++ <25%)”, the “AX: anxiolytic” value was “++++ (50% ≤ ++++)” and the “CE: cognitive enhancer” value is “++ (5% ≤ ++ <25%)”. Also, the “DP: anti-depressant” value was “++ (5% ≤ ++ <25%)”, the “MS: mood stabilizer” value is on record as “+ (LOQ ≤ + <5%)”, the “PS: anti-psychotic” value is “++ (5% ≤ ++ <25%)” and the “SD: sedative hypnotic” value is listed as “+ (LOQ ≤ + <5%)”. For the same compound, the “UN: uncharacterized CNS activity” value is listed as “+++ (25% ≤ +++ <50%)”. Moreover, the minimal effective dose under setting [1] fell in the range of 3 to 10 mg/kg.
